Results taken from paper PMC10147662, “Structural basis for the ligand promiscuity of the neofunctionalized, carotenoid-binding fasciclin domain protein AstaP” (Communications Biology, 2023).

What was measured:
[1] = target: AstaPo1 (AstaP-orange1), residues 21-223 (Coelastrella astaxanthina, UniProt S6BQ14); assay: differential scanning calorimetry, holoform vs apoform; assay type: binding; conditions: 20 mM Na-phosphate pH 7.0, 1 °C per min, apo Tm ~60 °C
AstaPo1^41–190 = target: T1, AstaPo1^41–190 (Coelastrella astaxanthina, UniProt S6BQ14); assay: SEC with diode-array absorbance; Trp fluorescence quenching; DSC of holoform; assay type: binding; conditions: holoform from ZEA-synthesizing E. coli; apoform insoluble
T1 construct: gene astaP; isolated FAS1 domain 41-190, N- and C-terminal regions removed, His6 cut leaving GPHM, E. coli, 16 kDa, monomer
T1 sequence (S6BQ14 entry or part of it): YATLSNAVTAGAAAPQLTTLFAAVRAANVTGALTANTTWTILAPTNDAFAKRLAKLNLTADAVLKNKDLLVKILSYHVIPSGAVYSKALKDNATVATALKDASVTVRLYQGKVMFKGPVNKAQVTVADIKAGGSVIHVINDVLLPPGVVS

AstaPo1 (AstaP-orange1), residues 21-223, sequence (S6BQ14 entry or part of it): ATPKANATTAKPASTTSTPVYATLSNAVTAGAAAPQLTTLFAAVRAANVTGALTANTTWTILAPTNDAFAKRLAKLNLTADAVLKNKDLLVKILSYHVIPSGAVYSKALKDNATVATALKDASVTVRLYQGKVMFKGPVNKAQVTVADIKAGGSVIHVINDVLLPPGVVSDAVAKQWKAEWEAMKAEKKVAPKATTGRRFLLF

Row | Structure (SMILES) | Tm increase ([1]; holoform from CAN-synthesizing E. coli) | Tm increase ([1]; holoform from ZEA-synthesizing E. coli) | SEC with diode-array absorbance; Trp fluorescence quenching; DSC of holoform (AstaPo1^41–190)
1 | CC1=C(/C=C/C(C)=C/C=C/C(C)=C/C=C/C=C(C)/C=C/C=C(C)/C=C/C2=C(C)C(=O)CCC2(C)C)C(C)(C)CCC1=O [canthaxanthin] | > 15 °C |  | 
2 | CC1=C(/C=C/C(C)=C/C=C/C(C)=C/C=C/C=C(C)/C=C/C=C(C)/C=C/C2=C(C)C[C@@H](O)CC2(C)C)C(C)(C)C[C@H](O)C1 [zeaxanthin] |  | > 15 °C | which confirms the direct carotenoid interaction within this domain
